Results as given in US20260242606A1, “PROCESS OF PREPARATION OF RESIDUE FREE SOLVENT BLUE 67 DYE” (RATHI DYE CHEM (P) LTD, priority 2023, published 2026).

Experiment: Estimation of residue content in Solvent Blue 67 dye by filtration of the dye solution in organic solvent
Type: physicochemical
Experimental: For the preparation of Solvent Blue 67, chlorosulfonation is carried out in a vessel by reacting chlorosulfonic acid with 300 g of crude copper phthalocyanine blue (CPC) in presence of acid chloride followed by the process of drowning, filtration, homogenization, condensation, clarification, filtration, spin flash drying, airclassifying and sieving to retrieve the final product. The final product obtained is 560 g to 600 g of Solvent Blue 67 with purity 100%+5% coloristic value. Further, the estimation of residue content is determined by filtration process of prepared Solvent Blue 67 dye using organic solvent and the weight of residue is calculated.
An adequate quantity of Solvent Blue 67 of about 20 g to 60 g is dissolved in 50 ml to 150 ml of alkyl ester (or alkyl ketonic organic solvent) based on end process in a glass beaker. […]
The resultant dye solution is filtered through a filtration assembly. […] The residue left in the beaker is quantitatively transferred to the filter using 20 ml to 30 ml of alkyl ester (or alkyl ketonic organic solvent) and the filtrate is further washed with 15 to 25 ml of the same solvent to make it colour free. […] The weight of residue is calculated as weights of before and after filtration and expressed in PPM. […]

residue content (Example 1, after clarification 225 (circulated in filter of 10 to 100 mesh up to 24 hrs), cake dried): below 40 PPM
Substance: Solvent Blue 67
presence of residue (FIGS. 2a and 2b) (dye dissolved in alkyl ester or alkyl ketonic organic solvent, filtered through 20 to 50 micron stainless-steel mesh): does not show presence of any amount of residue
